# Source: patent US11478526B2, “Methods of reducing neuroinflammation or toxicity induced by amyloid beta (abeta) using glucocorticoid induced leucine zipper (GILZ) analog peptides” (INDIANA UNIVERSITY RESEARCH AND TECHNOLOGY CORPORATION, priority 2016, dated 2022)
# Tests used:
# [1] = system: activated p65 NF-κB subunit; test: Nuclear p65 DNA binding (TransAM NF-κB ELISA) in HFB; format: cell-based, human; settings: Aβ1-42 exposed, 4 hours
# Method: Fetal brain materials (10-20 g) were shipped overnight in chilled Hibernate-E medium (Invitrogen) supplemented with B27 (Invitrogen), GlutaMAX (Invitrogen) and antibiotic-antimycotic solution (Cellgro). HFB were prepared and cultured as described. Briefly, cells were cultured in Neurobasal medium (Invitrogen) without phenol red supplemented with 1×B27, […] GlutaMAX, 1×antibiotic cocktail, 5 ng/mL recombinant fibroblast growth factor 2 (bFGF) (Invitrogen), and 2 μL/mL Normocin (InVivoGen, San Diego, Calif., USA). Cells were counted and seeded onto poly-D-lysine (Sigma-Aldrich) coated 24-well plates (Corning, Lowell, Mass., USA) at 1.5×10^5 cells per well and maintained at 37° C. in a 5% CO2 incubator. Half media changes were performed every 4th day of culture and morphology was monitored via phase contrast microscopy. Culture medium was removed from cells on day 17 (DIV17) and replaced with Neurobasal medium with B27. Appropriate wells were then added vehicle, or carrier peptide or individual GA or control peptide (at 50 μM) for 30 min followed by exposure to Aβ1-42 at a final concentration of 10 μM/well and incubated for 4 hours or 48 hours. Cells and conditioned media were harvested and stored for further analysis. Relative ATP concentration was measured using the CTG kit (Promega). Data is presented as ΔRLU=RLU of Aβ1-42 exposed cells-RLU unexposed cells. Conditioned media collected were assessed for specific cytokines using the OptEIA kits (BD Biosciences). Nuclear and cytoplasmic fractions were extracted using the CelLytic™ NuCLEAR™ Extraction Kit (Sigma) following manufacturer's protocol. Five microgram of nuclear extracts was incubated in a 96-well plate coated with oligonucleotides containing the NF-κβ consensus nucleotide sequence (5′-[…]-3′) (SEQ ID NO: 30). The activated NF-κβ bound to DNA was detected by anti-p65 antibody followed by a peroxidase coupled secondary antibody and substrate using the TransAM kit protocol (Active Motif). Nuclear extracts of Raji cells was used as the positive control.
# Select PGA protects against Aβ1-42 induced toxicity, prevents p65 activation and cytokine response in human fetal brain (HFB) cells. […] Viability in terms of relative luminescent Units (RLU) was quantified using a Glowmax luminometer (Promega, Wis.). Data are presented as ARLU=RLU of Aβ1-42 exposed cells-RLU of unexposed cells. […] The mean RLU of vehicle treated HFB varied between 7352.75+/−1265.2 and 16157.5+/−4950. […] The culture supernatants were assessed for cytokines by ELISA (R&D Systems, Minn.). […] Primary HFB cultured similarly and harvested at the end of 4 hours was assessed for nuclear p65 using TransAM kit for NF-κB p65 (Active Motif, Calif.).
# U373 cells = test: Annexin-V and propidium iodide apoptosis by flow cytometry; format: cell-based, human; settings: score 1/0
# Method: Detection apoptosis by flow cytometry: To further assess cell cytotoxicity, the apoptotic effects of individual GA or control peptide was evaluated by the Annexin-V and propidium iodide (PI) dual staining method (Annexin-V-Fluos staining kit, Roche Diagnostics, Mannheim, Germany). As opposed to apoptotic cells, necrotic cells with ruptured cell membrane take up PI, the DNA binding dye. Thus, cells which take up both fluorochromes are a mixture of apoptotic and necrotic cells, whereas cells that exclude PI but bind Annexin V are (early) apoptotic cells. U373 cells cultured with varying concentrations of individual GA or control peptide (0.5 μM to 50 μM) for 24 hours were centrifuged and suspended in 100 μl of Annexin V/PI labelling solution (20 μl each of Annexin-V-Fluos labelling reagent and PI in 1 ml of binding buffer) for 15 min at room temperature. After washing the cells were resuspended in PBS:1% paraformaldehyde and analyzed using a FACScan flow cytometer (BD Biosciences, San Jose, Calif.).
Substance,nuclear p65 ([1]; PGA at IC50 concentration),% apoptosis at LD50 (U373 cells),nuclear p65 ([1]; 50 μM peptide)
Ac-EPAPLAPYG-NH2 [PGA-2],decreased nuclear p65,1 (<25),–
Ac-EPAPESPQV-NH2 [PGA-4],decreased nuclear p65,1 (<25),–
Ac-EPAPESPQV-NH2 [GA-2],–,–,trend towards decreased nuclear p65
Ac-EPAPLAPYG-NH2 [GA-1],–,–,trend towards decreased nuclear p65
